Laboratory results as given in US7652055B2, “2-imidazolines” (Hoffman-La Roche Inc., priority 2007, dated 2010).
pKd: −log10 of the molar value.

Target: T1, TAAR1 (Mus musculus, UniProt Q923Y8)
T1 construct: expressed in transfected cells; host or cells: HEK293 (ATCC # CRL-1573), stably transfected with pIRESneo2 expression plasmid; membranes prepared
Assay: Radioligand binding assay on membranes of HEK293 cells stably expressing TAAR1
Settings: for Ki: mouse TAAR1, radioligand [3H]-rac-2-(1,2,3,4-tetrahydro-1-naphthyl)-2-imidazoline at 60 nM, 4° C., 30 min
Protocol: Construction of TAAR Expression Plasmids and Stably Transfected Cell Lines
For the construction of expression plasmids the coding sequences of human, rat and mouse TAAR 1 were amplified from genomic DNA essentially as described by Lindemann et al.. The Expand High Fidelity PCR System (Roche Diagnostics) was used with 1.5 mM Mg^2+ and purified PCR products were cloned into pCR2.1-TOPO cloning vector (Invitrogen) following the instructions of the manufacturer. PCR products were subcloned into the pIRESneo2 vector (BD Clontech, Palo Alto, Calif.), and expression vectors were sequence verified before introduction in cell lines.
HEK293 cells (ATCC # CRL-1573) were cultured essentially as described Lindemann et al. (2005). For the generation of stably transfected cell lines HEK293 cells were transfected with the pIRESneo2 expression plasmids containing the TAAR coding sequences (described above) with Lipofectamine 2000 (Invitrogen) according to the instructions of the manufacturer, and 24 hrs post transfection the culture medium was supplemented with 1 mg/ml G418 (Sigma, Buchs, Switzerland). After a culture period of about 10 d clones were isolated, expanded and tested for responsiveness to trace amines (all compounds purchased from Sigma) with the cAMP Biotrak Enzyme immunoassay (EIA) System (Amersham) following the non-acetylation EIA procedure provided by the manufacturer.
Membrane Preparation and Radioligand Binding
Cells at confluence were rinsed with ice-cold phosphate buffered saline without Ca^2+ and Mg^2+ containing 10 mM EDTA and pelleted by centrifugation at 1000 rpm for 5 min at 4° C. The pellet was then washed twice with ice-cold phosphate buffered saline and cell pellet was frozen immediately by immersion in liquid nitrogen and stored until use at −80° C. Cell pellet was then suspended in 20 ml HEPES-NaOH (20 mM), pH 7.4 containing 10 mM EDTA, and homogenized with a Polytron (PT 3000, Kinematica) at 10,000 rpm for 10 s. The homogenate was centrifuged at 48,000×g for 30 min at 4° C. and the pellet resuspended in 20 ml HEPES-NaOH (20 mM), pH 7.4 containing 0.1 mM EDTA (buffer A), and homogenized with a Polytron at 10,000 rpm for 10 s. The homogenate was then centrifuged at 48,000×g for 30 min at 4° C. and the pellet resuspended in 20 ml buffer A, and homogenized with a Polytron at 10,000 rpm for 10 s. Protein concentration was determined by the method of Pierce (Rockford, Ill.). The homogenate was then centrifuged at 48,000×g for 10 min at 4° C., resuspended in HEPES-NaOH (20 mM), pH 7.0 including MgCl2 (10 mM) and […] homogenized with a Polytron at 10,000 rpm for 10 s.
Binding assay was performed at 4° C. in a final volume of 1 ml, and with an incubation time of 30 min. The radioligand [^3H]-rac-2-(1,2,3,4-tetrahydro-1-naphthyl)-2-imidazoline was used at a concentration equal to the calculated Kd value of 60 nM to give a bound at around 0.1% of the total added radioligand concentration, and a specific binding which represented approximately 70-80% of the total binding. Non-specific binding was defined as the amount of [^3H]-rac-2-(1,2,3,4-tetrahydro-1-naphthyl)-2-imidazoline bound in the presence of the appropriate unlabelled ligand (10 μM). Competing ligands were tested in a wide range of concentrations (10 pM-30 μM). […] Each experiment was performed in duplicate. All incubations were terminated by rapid filtration through UniFilter-96 plates (Packard Instrument Company) and glass filter GF/C, pre-soaked for at least 2 h in polyethylenimine 0.3%, and using a Filtermate 96 Cell Harvester (Packard Instrument Company). The tubes and filters were then washed 3 times with 1 ml aliquots of cold buffer B. Filters were not dried and soaked in Ultima gold (45 μl/well, Packard Instrument Company) and bound radioactivity was counted by a TopCount Microplate Scintillation Counter (Packard Instrument Company).

T1 sequence (Q923Y8 whole entry): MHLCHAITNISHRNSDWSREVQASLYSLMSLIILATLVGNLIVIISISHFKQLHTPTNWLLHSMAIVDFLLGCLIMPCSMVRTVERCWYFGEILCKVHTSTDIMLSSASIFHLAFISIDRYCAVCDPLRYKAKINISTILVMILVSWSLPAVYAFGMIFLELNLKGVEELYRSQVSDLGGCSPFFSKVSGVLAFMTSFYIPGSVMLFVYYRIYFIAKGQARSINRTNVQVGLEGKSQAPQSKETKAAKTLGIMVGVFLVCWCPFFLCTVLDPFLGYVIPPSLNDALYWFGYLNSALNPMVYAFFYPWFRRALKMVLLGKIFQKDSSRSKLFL

| SMILES | pKd (radioligand of the binding assay, TAAR1 species not stated at this place, read-out: calculated Kd value of the radioligand) | Ki [µM] |
| --- | --- | --- |
| c1ccc2c(c1)CCCC2C1=NCCN1 (racemic) [[^3H]-rac-2-(1,2,3,4-tetrahydro-1-naphthyl)-2-imidazoline, reference compound] | 7.22 |  |
| Clc1cccc(OCC2=NCCN2)c1Cl [Example K12, 2-(2,3-Dichloro-phenoxymethyl)-4,5-dihydro-1H-imidazole] |  | 0.0063 |
| FC(F)(F)c1cccc(OCC2=NCCN2)c1 [Example K17, 2-(3-Trifluoromethyl-phenoxymethyl)-4,5-dihydro-1H-imidazole] |  | 0.0913 |
| Fc1cccc(OCC2=NCCN2)c1F [Example 21, 2-(2,3-Difluoro-phenoxymethyl)-4,5-dihydro-1H-imidazole] |  | 0.0341 |
| CC(C)Oc1ccc(OCc2ccc(OCC3=NCCN3)cc2)cc1 [Example 13, 2-[4-(4-Isopropoxy-phenoxymethyl)-phenoxymethyl]-4,5-dihydro-1H-imidazole] |  | 0.025 |
| Clc1cccc(SCC2=NCCN2)c1Cl [Example 31, 2-(2,3-Dichloro-phenylsulfanylmethyl)-4,5-dihydro-1H-imidazole] |  | 0.0075 |
| FC(F)(F)c1cccc(OCC2=NCCN2)c1Cl [Example 20, 2-(2-Chloro-3-trifluoromethyl-phenoxymethyl)-4,5-dihydro-1H-imidazole] |  | 0.0016 |
| CN(CC1=NCCN1)c1cccc(Cl)c1 [Example 3, (3-Chloro-phenyl)-(4,5-dihydro-1H-imidazol-2-ylmethyl)-methyl-amine] |  | 0.0084 |
| CC(Oc1c(Cl)cccc1Cl)C1=NCCN1 (stereo not drawn) [Example K21, 2-[1-(2,6-Dichloro-phenoxy)-ethyl]-4,5-dihydro-1H-imidazole] |  | 0.0262 |
| c1ccc(CCCc2ccc(OCC3=NCCN3)cc2)cc1 [Example 15, 2-[4-(3-Phenyl-propyl)-phenoxymethyl]-4,5-dihydro-1H-imidazole] |  | 0.0441 |
| CC(C)Oc1ccc(C(=O)CCc2ccc(OC(C)C3=NCCN3)cc2)cc1 (stereo not drawn) [Example 12, 3-{4-[1-(4,5-Dihydro-1H-imidazol-2-yl)-ethoxy]-phenyl}-1-(4-isopropoxy-phenyl)-propan-1-one] |  | 0.0158 |
| Cc1c(Cl)cccc1NNC1=NCCN1 [Example K25, N-(3-Chloro-2-methyl-phenyl)-N′-(4,5-dihydro-1H-imidazol-2-yl)-hydrazine] |  | 0.0057 |
| Clc1ccccc1OCC1=NCCN1 [Example K10, 2-(2-Chloro-phenoxymethyl)-4,5-dihydro-1H-imidazole] |  | 0.064 |
| Clc1cc(NCC2=NCCN2)ccc1Br [Example 1, (4-Bromo-3-chloro-phenyl)-(4,5-dihydro-1H-imidazol-2-ylmethyl)-amine] |  | 0.0022 |
| Cc1ccc(NNC2=NCCN2)cc1C [Example 35, N-(4,5-Dihydro-1H-imidazol-2-yl)-N′-(3,4-dimethyl-phenyl)-hydrazine] |  | 0.044 |
| CN(CC1=NCCN1)c1ccc(Cl)c(Cl)c1 [Example 4, (3,4-Dichloro-phenyl)-(4,5-dihydro-1H-imidazol-2-ylmethyl)-methyl-amine] |  | 0.0059 |
| Clc1cccc(NCC2=NCCN2)c1 [Example K2, (3-Chloro-phenyl)-(4,5-dihydro-1H-imidazol-2-ylmethyl)-amine] |  | 0.007 |
| Clc1ccc(OCC2=NCCN2)cc1Cl [Example 27, 2-(3,4-Dichloro-phenoxymethyl)-4,5-dihydro-1H-imidazole] |  | 0.0329 |
| c1ccc(C2CC2)c(OCC2=NCCN2)c1 [Example K20, 2-(2-Cyclopropyl-phenoxymethyl)-4,5-dihydro-1H-imidazole] |  | 0.0325 |
| c1cc2ccc(OCC3=NCCN3)cc2o1 [Example 17, 2-(Benzofuran-6-yloxymethyl)-4,5-dihydro-1H-imidazole] |  | 0.0372 |
| Cc1c(O)ccc(OCC2=NCCN2)c1C [Example 24, 4-(4,5-Dihydro-1H-imidazol-2-ylmethoxy)-2,3-dimethyl-phenol] |  | 0.093 |
| Cc1c(NCC2=NCCN2)ccc2occc12 [Example 7, (4,5-Dihydro-1H-imidazol-2-ylmethyl)-(4-methyl-benzofuran-5-yl)-amine] |  | 0.0028 |
| c1ccc(Cc2cccc(OCC3=NCCN3)c2)cc1 [Example 14, 2-(3-Benzyl-phenoxymethyl)-4,5-dihydro-1H-imidazole] |  | 0.0054 |
| Clc1ccc(NCC2=NCCN2)cc1 [Example K1, (4-Chloro-phenyl)-(4,5-dihydro-1H-imidazol-2-ylmethyl)-amine] |  | 0.023 |
| COc1ccccc1N(C)CC1=NCCN1 [Example 9, (4,5-Dihydro-1H-imidazol-2-ylmethyl)-(2-methoxy-phenyl)-methyl-amine] |  | 0.0432 |
| COc1ccc(Cc2ccc(NCC3=NCCN3)cc2)cc1 [Example 8, (4,5-Dihydro-1H-imidazol-2-ylmethyl)-[4-(4-methoxy-benzyl)-phenyl]-amine] |  | 0.0443 |
| Fc1cc(NCC2=NCCN2)ccc1Cl [Example 2, (4-Chloro-3-fluoro-phenyl)-(4,5-dihydro-1H-imidazol-2-ylmethyl)-amine] |  | 0.0011 |
